Data published in ChEMBL document CHEMBL1201862, “PubChem BioAssay data set” (2004).
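Following 48 hours of exposure in 96-well plates, responses at five concentrations were used to interpolate endpoints linearly. GI50 marks 50% less growth.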 The source made the active and inactive calls. Rule as the data show it: active = GI50 up to about 1.1 µM and inactive = higher.

Tests used:
Experiment in all cases: NCI-60 cell line screen, 48 h
MCF7 = tested on: MCF7
M14 = tested on: M14
K562 = tested on: K562
HL-60 = tested on: HL-60
OVCAR-5 = tested on: OVCAR-5
OVCAR-8 = tested on: OVCAR-8
UO-31 = tested on: UO-31
OVCAR-3 = tested on: OVCAR-3
SK-OV-3 = tested on: SK-OV-3
SNB-75 = tested on: SNB-75
LOX IMVI = tested on: LOX IMVI
HT-29 = tested on: HT-29
SK-MEL-2 = tested on: SK-MEL-2
786-0 = tested on: 786-0
UACC-62 = tested on: UACC-62
HCT-116 = tested on: HCT-116
SW-620 = tested on: SW-620
MDA-N = tested on: MDA-N
HOP-62 = tested on: HOP-62
OVCAR-4 = tested on: OVCAR-4

Structure (SMILES)	GI50 (MCF7)	GI50 (M14)	GI50 (K562)	GI50 (HL-60)	GI50 (OVCAR-5)	GI50 (OVCAR-8)	GI50 (UO-31)	GI50 (OVCAR-3)	GI50 (SK-OV-3)	GI50 (SNB-75)	GI50 (LOX IMVI)	GI50 (HT-29)	GI50 (SK-MEL-2)	GI50 (786-0)	GI50 (UACC-62)	GI50 (HCT-116)	GI50 (SW-620)	GI50 (MDA-N)	GI50 (HOP-62)	GI50 (OVCAR-4)
COc1ccc2ccccc2c1C1NC(=O)c2ccccc2N1 (centres undefined)	0.78 µM (active)	0.951 µM (active)	0.279 µM (active)	0.0518 µM (active)	3.39 µM (inactive)	3.03 µM (inactive)	11.3 µM (inactive)	0.398 µM (active)	2.82 µM (inactive)	1.32 µM (inactive)	0.995 µM (active)	0.873 µM (active)	2.08 µM (inactive)	1.53 µM (inactive)	0.455 µM (active)	0.614 µM (active)	0.536 µM (active)	0.173 µM (active)	3.51 µM (inactive)	
C(=N\c1ccc(-c2nc3ccccc3[nH]2)cc1)/c1ccc[nH]1	25.7 µM (inactive)	> 100 µM (inactive)	41.3 µM (inactive)	1.91 µM (inactive)	> 100 µM (inactive)	83.9 µM (inactive)	69.3 µM (inactive)	69 µM (inactive)		> 100 µM (inactive)	76.6 µM (inactive)	78.5 µM (inactive)	> 100 µM (inactive)	83.4 µM (inactive)	55.3 µM (inactive)	50.9 µM (inactive)	73.3 µM (inactive)	34.2 µM (inactive)	3.94 µM (inactive)	54.2 µM (inactive)
CC(C)OCC1CC(CC(=O)Nc2nncs2)C(=O)O1 (centres undefined)	> 100 µM (inactive)	> 100 µM (inactive)	> 100 µM (inactive)		> 100 µM (inactive)	> 100 µM (inactive)	> 100 µM (inactive)	> 100 µM (inactive)	> 100 µM (inactive)	> 100 µM (inactive)	> 100 µM (inactive)	> 100 µM (inactive)	> 100 µM (inactive)	> 100 µM (inactive)	> 100 µM (inactive)	> 100 µM (inactive)	> 100 µM (inactive)	> 100 µM (inactive)	> 100 µM (inactive)	> 100 µM (inactive)
CC(O)=NC(Cc1ccc2ccccc2c1)C(O)=NC(Cc1ccc(Cl)cc1)C(O)=NC(Cc1c[nH]c2ccccc12)C(O)=NC(CO)C(O)=NC(Cc1ccc(O)cc1)C(O)=NC(CCCN=C(N)N)C(O)=NC(CC(C)C)C(O)=NC(CCCN=C(N)N)C(=O)N1CCCC1C(O)=NC(C)C(=N)O (centres undefined)	43.8 µM (inactive)	59.8 µM (inactive)	> 100 µM (inactive)	> 100 µM (inactive)	41.3 µM (inactive)	27.1 µM (inactive)	26 µM (inactive)	> 100 µM (inactive)	43.5 µM (inactive)	38.1 µM (inactive)		35.5 µM (inactive)	13.4 µM (inactive)	35.8 µM (inactive)	45.6 µM (inactive)		76.7 µM (inactive)	30.4 µM (inactive)	85.7 µM (inactive)	74 µM (inactive)
COc1cccc(C=C2N=C(C)N(n3c(-c4ccccc4)nc4ccccc4c3=O)C2=O)c1	83.4 µM (inactive)	> 100 µM (inactive)	> 100 µM (inactive)	> 100 µM (inactive)		> 100 µM (inactive)	> 100 µM (inactive)		> 100 µM (inactive)	56.1 µM (inactive)	> 100 µM (inactive)	> 100 µM (inactive)		> 100 µM (inactive)	> 100 µM (inactive)	> 100 µM (inactive)	> 100 µM (inactive)	> 100 µM (inactive)	> 100 µM (inactive)	
COC(CN(C(=O)c1ccccc1)C1CCC2(SCCS2)c2[nH]c3ccccc3c21)OC (centres undefined)	32.1 µM (inactive)	30.7 µM (inactive)	14.9 µM (inactive)	16.9 µM (inactive)	33.7 µM (inactive)	34.9 µM (inactive)	16 µM (inactive)	25.8 µM (inactive)		20.2 µM (inactive)	2.18 µM (inactive)	37.3 µM (inactive)	32.6 µM (inactive)	37 µM (inactive)		32.3 µM (inactive)	33.3 µM (inactive)	12.9 µM (inactive)	27.7 µM (inactive)	28.2 µM (inactive)
